Experimental data: US7598234B2, “Steroid derived antibiotics” (Brigham Young University, priority 1998, dated 2009)
In brackets after ≈: the same amount, converted by molar mass.

Legend:
[1] = tested on: E. coli (ATCC 10798); assay: MIC and MBC measurement with E. coli (ATCC 10798); assay type: cell-based, Escherichia coli
Text: (§1) General: Microorganisms. Reference strains were purchased from the American Type Culture Collection (Rockville, Md.) or Bactrol disks from Difeo Laboratories (Detroit, Mich.). The following specific ATCC strains were used: 10798 Escherichia coli, 25922 Escherichia coli, 13883 Klebsiella pneumoniae, 27853 Pseudomonas aeruginosa, 14028 Salmonella typhimurium, 29212 Enterococcus faecalis, 25923 Staphylococcus aureus, 19615 Streptococcus pyogenes, and 90028 Candida albicans. Bacterial strains were maintained on Mueller-Hinton agar plates, and Candida albicans was maintained on Sabouraud Dextrose agar plates.
(§2) Tryptic soy broth (TSB) was made by dissolving 27.5 grams of tryptic soy broth without dextrose (DIFCO Laboratories) in 1 liter of deionized water and sterilizing at 121° C. for 15 minutes. Solid agar (TSA) plates were made by dissolving 6.4 grams of tryptic soy broth and 12 grams of agar (purified grade, Fischer Scientific) in 800 mL of deionized water and sterilizing at 121° C. for 20 minutes. Aliquots (20 mL) of the homogeneous solution were then poured in sterile plastic petri dishes (100×15 mm, Fisher Scientific). Solutions of compounds were made by dissolving the HCl salt of the respective compound into an appropriate amount of deionized and sterilized water followed by microfiltration.
(§3) Aliquots of 1 mL of the suspension were added to test tubes containing 1 mL TSB and incrementally varied concentrations of cholic acid derivatives and/or erythromycin or novobiocin. In the sensitization experiments, erythromycin or novobiocin were added 15 minutes later than the cholic acid derivatives. The samples were subjected to stationary incubation at 37° C. for 24 hours. Sample turbidity was determined by measuring absorption at 760 nm (HP 8453 UV-Visible Chemstation, Hewlett Packard). Additionally, an alliquot from each of the samples showing no measurable turbidity was subcultured on TSA plates (alliquots were diluted to provide fewer than 300 CFU). Colonies that grew on the subculture after overnight incubation were counted and the number of CFU/mL in the samples were calculated. The calculated values were compared to the number of CFU/mL in the original inoculum.

[2] = tested on: E. coli (ATCC 10798); assay: Sensitization to erythromycin (concentration lowering the MIC of erythromycin), E. coli (ATCC 10798); assay type: cell-based, Escherichia coli; conditions: for (a) Concentration required to lower the MIC of erythromycin from 70 to 1 μg/mL / (b) MBC with 1 μg/mL erythromycin / FIC values with erythromycin: Table 9, Escherichia coli (ATCC 10798)
Protocol: (§4) Alternatively, “fractional inhibitory concentration (FIC)” is also useful for determination of synergy between the compounds of the invention, or the compounds in combination with known antibiotics. FICs can be performed by checkerboard titrations of compounds in one dimension of a microtiter plate, and of antibiotics in the other dimension, for example. The FIC is calculated by looking at the impact of one antibiotic on the MIC of the other and vice versa. […] Preferably, an FIC of less than 0.5 is obtained for synergism. As used herein, FIC can be determined as follows:
as §3
(§5) Ability to permeabilize outer membrane: Compounds 11, 106, and 108-114 (FIG. 1) were tested for antibiotic activity. They were also tested for the ability to permeabilize the outer membrane of Gram-negative bacteria, causing sensitization to hydrophobic antibiotics that cannot cross the outer membrane. The permeabilization of the outer membrane was measured using erythromycin and novobiocin.
(§6) The MICs of erythromycin and novobiocin against E. coli (ATCC 10798) at 70 and >500 μg/mL were measured.

[3] = tested on: E. coli (ATCC 10798); assay: Sensitization to novobiocin (concentration lowering the MIC of novobiocin), E. coli (ATCC 10798); assay type: cell-based, Escherichia coli; conditions: Table 9; Escherichia coli (ATCC 10798)
Protocol: as §4, §3, §5, §6

[4] = tested on: E. coli (ATCC 25922); assay: MIC and MBC measurement with E. coli (ATCC 25922); assay type: cell-based, Escherichia coli
Text: as §1, §2
as §3, with “inoculum. […]” for “inoculum.”

[5] = tested on: Pseudomonas aeruginosa (ATCC 27853); assay: MIC and MBC measurement with Pseudomonas aeruginosa (ATCC 27853); assay type: cell-based; conditions: P. aureginosa (ATCC 27853); starting MIC in sensitization tests
Text: as §1, §2, §3

[6] = tested on: Staphylococcus aureus ATCC 25923; assay: MIC and MBC measurement with Staphylococcus aureus ATCC 25923; assay type: cell-based; conditions: Table 10; Staphylococcus aureus ATCC 25923
Text: as §1, §2
as §3, with “inoculum. […]” for “inoculum.”

[7] = Table 9, Escherichia coli (ATCC 10798)

Compound | MBC [1, 7] | MIC [1, 7] | (a) Concentration required to lower the MIC of erythromycin from 70 to 1 μg/mL [2] | (b) MBC with 1 μg/mL erythromycin [2] | FIC values with erythromycin [2] | also measured
COCCC[C@@H](C)[C@H]1CC[C@H]2[C@@H]3[C@H](OCCCN)C[C@@H]4C[C@H](OCCCN)CC[C@]4(C)[C@H]3C[C@H](OCCCN)[C@]12C [Compound 111] | 33 µg/mL (≈ 56.9 µM) | 30 µg/mL (≈ 51.7 µM) | 1.0 µg/mL | 20 µg/mL | 0.048 | (d) Concentration required to lower the MIC of novobiocin from >500 to 1 μg/mL [3]: 2.0 µg/mL; FIC values with novobiocin [3]: 0.069
CCCCCOCCC[C@@H](C)[C@H]1CC[C@H]2[C@@H]3[C@H](OCCCN)C[C@@H]4C[C@H](OCCCN)CC[C@]4(C)[C@H]3C[C@H](OCCCN)[C@]12C [Compound 113] | 5.0 µg/mL (≈ 7.86 µM) | 3.0 µg/mL (≈ 4.72 µM) | 0.8 µg/mL | 2.0 µg/mL | 0.28 | (d) Concentration required to lower the MIC of novobiocin from >500 to 1 μg/mL [3]: 1.0 µg/mL; FIC values with novobiocin [3]: 0.27
CCCCCCCCOCCC[C@@H](C)[C@H]1CC[C@H]2[C@@H]3[C@H](OCCCN)C[C@@H]4C[C@H](OCCCN)CC[C@]4(C)[C@H]3C[C@H](OCCCN)[C@]12C [Compound 114] | 10 µg/mL (≈ 14.7 µM) | 3.0 µg/mL (≈ 4.42 µM) | 3.0 µg/mL | 3.0 µg/mL | 1.0 | –
C[C@H](CCCOS(=O)(=O)O)[C@H]1CC[C@H]2[C@@H]3[C@H](OCCCN)C[C@@H]4C[C@H](OCCCN)CC[C@]4(C)[C@H]3C[C@H](OCCCN)[C@]12C [Compound 132] | – | – | – | – | – | MIC ([1]; E. coli (ATCC 10798)): 60 µg/mL (≈ 92.9 µM); concentration required to lower the MIC of erythromycin to 1 μg/mL ([2]; E. coli (ATCC 10798)): 4.0 µg/mL
C[C@H](CCCN)[C@H]1CC[C@H]2[C@@H]3[C@H](OCCCN)C[C@@H]4C[C@H](OCCCN)CC[C@]4(C)[C@H]3C[C@H](OCCCN)[C@]12C [Compound 135] | – | – | – | – | – | MBC (in words) ([1]; FIG. 5, strain not named): relatively high; MIC (in words) ([1]; FIG. 5, strain not named): relatively high
CC[C@H]1OC(=O)[C@H](C)[C@@H](O[C@H]2C[C@@](C)(OC)[C@@H](O)[C@H](C)O2)[C@H](C)[C@@H](O[C@@H]2O[C@H](C)C[C@H](N(C)C)[C@H]2O)[C@](C)(O)C[C@@H](C)C(=O)[C@H](C)[C@@H](O)[C@]1(C)O [erythromycin, reference compound] | – | – | – | – | – | MIC ([4]; Escherichia coli, ATCC25922, E. coli (ATCC 25922), starting MIC in sensitization tests, read-out: MIC of erythromycin alone): 36 µg/mL; MIC of the antibiotic alone [5]: 240 μg/mL to 5 μg/mL with P. aureginosa (ATCC 27853).
CO[C@@H]1[C@@H](OC(N)=O)[C@@H](O)[C@H](Oc2ccc3c(O)c(NC(=O)c4ccc(O)c(CC=C(C)C)c4)c(=O)oc3c2C)OC1(C)C [novobiocin, reference compound] | – | – | – | – | – | MIC of the antibiotic alone [5]: >500 μg/mL to 1 μg/mL with P. aureginosa (ATCC 27853).
polymyxin B [PMB, reference compound] | – | – | – | – | – | MBC ([4]; Table 10, Escherichia coli ATCC 25922): 1.8 µg/mL; MBC [6]: >100 µg/mL
